Entries after “also recorded” stand apart in the source; their conditions may differ.
Legend:
[1] = system: dermal fibroblasts from SSc patients; assay: Expression of extracellular matrix proteins in dermal fibroblasts from SSc patients (real-time PCR, SirCol); format: cell-based, human
Experimental: Using fibroblasts isolated from skin biopsies from human systemic sclerosis (SSc) patients, an in vitro study was performed to evaluate whether the selective JNK inhibitor Compound JNKi-1 affects the expression of key extracellular matrix proteins.
Dermal fibroblasts from two SSc patients were treated for 24 hours (hr) with Compound JNKi-1 at concentrations from 0.1 μM to 10 μM (0.5% DMSO/99.5% cell culture media). To study the effect of Compound JNKi-1 on growth factor-induced collagen expression, recombinant transforming growth factor beta (TGF-β) (final concentration of 10 ng/mL) or platelet-derived growth factor-BB (PDGF-BB) (final concentration of 40 ng/mL) were added to cells 2 hr after the addition of JNK-inhibitor Compound JNKi-1 for 24 hr. The expression of collagen proteins was analyzed by SirCol assay. The messenger ribonucleic acid (mRNA) levels of extracellular proteins were measured by real-time polymerase chain reaction (PCR). The β-actin mRNA was used as internal control for the measurement of Collagen 1a1 mRNA using PCR. Fibroblast proliferation assay was performed in the presence or absence of 1 μM Compound JNKi-1 for 24 hr with the (3-(4,5-Dimethylthiazol-2-yl)-2,5-diphenyltetrazolium bromide) (MTT) assay.
The isolation of fibroblasts from human SSc patients and culture conditions used in this study have been previously described (Akhmetshina A, Dees C, Pileckyte M, Maurer B, Axmann R, Jüngel A, et al., Dual inhibition of c-abl and PDGF receptor signaling by dasatinib and nilotinib for the treatment of dermal fibrosis, FASEB J. 2008; 22(7):2214-22). Fibroblast cultures were obtained from skin biopsies of SSc patients. […] Biopsies from SSc patients were taken from involved skin of the forearm. After enzymatic digestion of the skin biopsies with Dispase II, fibroblasts were cultured in DMEM/F-12 containing 10% heat inactivated fetal calf serum (FCS), 100 U/mL penicillin, 100 μg/mL streptomycin, 2 mM L-glutamine and 2.5 μg/mL amphotericin B (all Invitrogen, Karlsruhe, Germany). Fibroblasts from passages 4-8 were used for the experiments. Data are expressed as mean±standard error of the mean (SEM).

[2] = system: phospho-c-Jun (JNK) in normal human epithelial keratinocytes (nHEK); assay: UVB-stimulated JNK activation in nHEK cells (Western blot); format: cell-based
Experimental: Two in vitro systems, nHEK and the EpiDermFT™ skin model, were used in this study. The nHEK cells and EpiDermFT™ samples were pretreated with JNKi-1 at concentrations of 0.1, 3, and 10 μM prior to 60 mJ/cm^2 and 135 mJ/cm^2 UVB irradiation, respectively. After UV stimulation, the activities of JNK were measured as levels of phospho-c-Jun via immunoblotting of cell lysates using an anti-phospho-c-Jun S63 antibody. Phospho-Stat3 was also evaluated as a marker of JNK activation.
nHEK Model system. Normal human epithelial keratinocytes (nHEK) cells were grown after three passages. Cells were plated at 2×10^6/plate in 100 mm plates. Plates were incubated at 37° C., 5% CO2 for 5 days until ˜80% confluent. Each plate was washed with warm phosphate buffered saline (PBS) and replenished with 10 mL of media containing either 0, 0.1, 3, or 10 μM of JNKi-1 and incubated for 1 hour (hr) at 37° C. Eight mL of media were removed and set aside. Plates were irradiated with 60 mJ/cm^2 of UVB in a UV cross-linker machine and control plates were sham irradiated. The 8 mL of media set aside were returned to each plate and stored at 37° C. Cells were harvested at 30 minutes and 4 hr post UV treatment and lysed in ice cold cell extraction buffer. Lysates were stored at −80° C.
cells were pre-incubated with either dimethyl sulfoxide (DMSO) (FIG. 31, lanes 1, 2, and 12 to 15) or JNKi-1 at the indicated concentration (lanes 3 to 11) for 1 hr and then irradiated without (Control, lanes 1 and 2) or with UVB at 60 mJ/cm^2 (lanes 3 to 15). Cells were lysed 30 minutes after UV irradiation and cell lysates were subjected to sodium dodecyl sulfate polyacrylamide gel electrophoresis (SDS-PAGE) before Western blotting with anti-phospho-c-Jun antibody. […]
Western analysis: For Western blot analysis, 20 to 25 μg of total protein were applied to SDS-PAGE gels followed by electrophoresis and blotting. […] The intensity of each band was quantified by the Odyssey 2.1 software and exported into Excel for further analysis. […]

[3] = 1 μM, 24 hr, compared to mock-treated fibroblasts

SMILES: O[C@H]1CC[C@H](Nc2ncc3nc(Nc4c(F)cc(F)cc4F)n([C@H]4CCOC4)c3n2)CC1 [JNKi-1, 4-((9-((3S)-tetrahydro-3-furanyl)-8-((2,4,6-trifluorophenyl)amino)-9H-purin-2-yl)amino)-trans-cyclohexanol]
- expression of extracellular matrix proteins (in words) ([1]; 0.1 μM to 10 μM, 24 hr): reduced expression; also recorded: dose-dependently reduced
- reduction of col 1a1 mRNA level [1, 3]: 71±11%
- reduction of col 1a2 mRNA level [1, 3]: 61±13%
- reduction of fibronectin-1 mRNA level [1, 3]: 55±14%
- reduction of collagen protein in the supernatant ([1]; 1 μM, compared to control): 21±7%
- concentration at which maximal effects were observed ([1]; tested 0.1 μM to 10 μM, 24 hr): 1 µM
- IC50 ([2]; Homo sapiens, light or radiation study, nHEK, 1 hr pretreatment, UVB 60 mJ/cm^2, lysed 30 minutes after UV, read-out: IC50 for p-cJun): 0.1 to 3 µM
- UVB-induced JNK activation (phospho-c-Jun level), in words ([2]; nHEK, 0.1, 3, 10 μM): strongly Inhibits; also recorded: significantly blocks
- inhibition of phospho-Stat3 ([2]; nHEK, 30 minutes post UV, data not shown): minimal

Reference: patent publication US8680076B2, “Methods of treatment, improvement and prevention using haloaryl substituted aminopurines” (Signal Pharmaceuticals, LLC, priority 2010, dated 2014)
